From patent US8889699B2, “5-fluorouracil derivative” (Delta-Fly Pharma, Inc., priority 2009, dated 2014)
pIC50: −log10 of the molar value. Like-named read-outs stand apart in the source and are kept apart here.

Biological target: T1, OPRT (Homo sapiens, UniProt P11172)
T1 construct: the obtained supernatant was used as a DPD enzyme solution or an OPRT enzyme solution; from tissue; 105,000 g supernatant of homogenate
T1 sequence (P11172 1-480): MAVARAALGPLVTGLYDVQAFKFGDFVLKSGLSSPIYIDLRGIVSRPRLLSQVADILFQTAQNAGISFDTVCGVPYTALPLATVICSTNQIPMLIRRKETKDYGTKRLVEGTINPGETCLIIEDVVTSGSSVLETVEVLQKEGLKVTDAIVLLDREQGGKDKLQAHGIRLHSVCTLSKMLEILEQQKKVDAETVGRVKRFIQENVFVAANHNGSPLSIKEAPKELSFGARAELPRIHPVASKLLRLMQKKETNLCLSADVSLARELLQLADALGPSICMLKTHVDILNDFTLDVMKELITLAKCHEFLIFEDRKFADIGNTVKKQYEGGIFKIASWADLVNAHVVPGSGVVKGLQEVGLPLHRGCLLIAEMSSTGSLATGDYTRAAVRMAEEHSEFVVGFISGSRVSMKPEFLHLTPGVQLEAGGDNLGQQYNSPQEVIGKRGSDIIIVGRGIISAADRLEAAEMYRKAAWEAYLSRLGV
Test: OPRT inhibitory action in vitro (enzyme reaction, tritium-labeled 5-FU as substrate)
Format: biochemical
Procedure: The resulting product was diluted to concentrations of 1 mM, 100 μM, 10 μM, and 1 μM with a 10 mM potassium phosphate buffer solution (pH 6.0), thereby obtaining Test Liquids 1. The obtained Test Liquids 1 were separately added to the enzyme reaction solution described below to give final concentrations of 200 μM, 20 μM, 2 μM, and 0.2 μM. • (b) Test liquid preparation (2): As a DPD inhibitor, 5-chloro-2,4-dihydroxypyridine (CDHP; gimeracil) was dissolved to a concentration of 10 mM in a 10 mM potassium phosphate buffer solution (pH 6.0). The resulting product was diluted to concentrations of 1 mM, 100 μM, 10 μM, and 1 μM, thereby obtaining Test Liquids 2. The obtained Test Liquids 2 were separately added to the enzyme reaction solution to give final concentrations of 200 μM, 20 μM, 2 μM, and 0.2 μM. • (c) Test liquid preparation (3): As an OPRT inhibitor, citrazinic acid (Citra. A.) was dissolved to a concentration of 10 mM in 20 mM trishydroxyaminomethane-hydrochloric buffer solution (pH 8.0). Thereafter, the resulting product was diluted to concentrations of 1 mM, 100 μM, and 10 μM with a 10 mM potassium phosphate buffer solution, thereby obtaining Test Liquids (3). The obtained Test Liquids 3 were separately added to the enzyme reaction solution to give final concentrations of 200 μM, 20 μM, and 2 μM. • (d) Preparation of enzyme solution: The liver of an 8-week old SD rat was used as a DPD enzyme source, while human tumor cells that had been transplanted into a nude mouse and proliferated therein were used as an OPRT enzyme source. Specifically, immediately after a rat liver or successively-transplanted human tumor cells were extracted, a 50-mM tris-hydrochloric acid buffer solution (pH 8.0) containing 0.25 M saccharose, 5 mM magnesium chloride, and 1 mM dithreitol was added thereto to a concentration of 25% (w/v) and homogenized. Thereafter, ultracentrifugation was performed at 105,000 g for 60 minutes, and the obtained supernatant was used as a DPD enzyme solution or an OPRT enzyme solution. • (e) Enzyme reaction: A DPD enzyme reaction was carried out in accordance with the method of Tatsumi et al. (Gann, 78: 748-755 (1987)) using 5-FU labeled with tritium as a substrate. An OPRT enzyme reaction was carried out in accordance with the method of Shirasaka et al. (Cancer Res., 53: 4004-4009 (1993)) using 5-FU labeled with tritium as a substrate. Then, the activity of a control group (with no test compound) and test compound groups was measured. The percent inhibition of the test compound relative to DPD or OPRT was calculated using the following formula: [1-(the enzyme activity with the test compound/the enzyme activity of the control group)]×100(%).
The resulting product was diluted to concentrations of 1 mM, 100 μM, 10 μM, and 1 μM with a 10 mM potassium phosphate buffer solution (pH 6.0), thereby obtaining Test Liquids 1. The obtained Test Liquids 1 were separately added to the enzyme reaction solution described below to give final concentrations of 200 μM, 20 μM, 2 μM, and 0.2 μM. • (b) Preparation of enzyme solution: The liver of an 8-week old SD rat was used as a DPD enzyme source, while human tumor cells that had been transplanted into a nude mouse and proliferated therein were used as an OPRT enzyme source. Specifically, immediately after a rat liver or successively-transplanted human tumor cells were extracted, a 50-mM tris-hydrochloric acid buffer solution (pH 8.0) containing 0.25 M saccharose, 5 mM magnesium chloride, and 1 mM dithreitol was added thereto to a concentration of 25% (w/v) and homogenized. Thereafter, ultracentrifugation was performed at 105,000 g for 60 minutes, and the obtained supernatant was used as a DPD enzyme solution or an OPRT enzyme solution. • (c) Enzyme reaction: A DPD enzyme reaction was carried out in accordance with the method of Tatsumi et al. (Gann, 78: 748-755 (1987)) using 5-FU labeled with tritium as a substrate. […]

[1] = Conc. 0.2 μM, Table 1, read-out: OPRT Inhibitory Activity: Inhibition
[2] = Conc. 2 μM, Table 1, read-out: OPRT Inhibitory Activity: Inhibition
[3] = 0.2 μM, Table 2, read-out: OPRT Inhibition (%)
[4] = 2 μM, Table 2, read-out: OPRT Inhibition (%)

SMILES | OPRT Inhibitory Activity: Activity (Conc. 0.2 μM, Table 1) | inhibition at 0.2 µM [1] | OPRT Inhibitory Activity: Activity (Conc. 2 μM, Table 1) | inhibition at 2 µM [2] | OPRT Inhibitory Activity: Activity (Conc. 20 μM, Table 1) | inhibition at 20 µM (Conc. 20 μM, Table 1) | OPRT Inhibitory Activity: Activity (Conc. 200 μM, Table 1) | inhibition at 200 µM (Conc. 200 μM, Table 1) | inhibition at 0.2 µM [3] | inhibition at 2 µM [4] | further results
CCOCn1cc(F)c(=O)n(C(=O)c2cccc(C(=O)Oc3cc(OC(=O)c4cc(O)nc(O)c4)c(Cl)cn3)c2)c1=O [Compound I-2, 3-{3-[4-(2,6-dihydroxyisonicotinoyloxy)-5-chloro-2-pyridyloxycarbonyl]benzoyl}-1-ethoxymethyl-5-fluorouracil] | 0.375 nmol/mL/min | 0% | 0.280 nmol/mL/min | 25.5% | 0.168 nmol/mL/min | 55.3% | 0.069 nmol/mL/min | 81.6% |  |  | 
CCOCn1cc(F)c(=O)n(C(=O)c2cccc(C(=O)Oc3cc(OC(=O)c4cc(OC(C)=O)nc(OC(C)=O)c4)c(Cl)cn3)c2)c1=O [Compound I-10, 3-{3-[4-(2,6-diacetyloxyisonicotinoyloxy)-5-chloro-2-pyridyloxycarbonyl]benzoyl}-1-ethoxymethyl-5-fluorouracil] |  |  |  |  |  |  |  |  | 27.8% | 76.4% | 
CCOCn1cc(F)c(=O)n(C(=O)c2cccc(C(=O)Oc3cc(OC(=O)c4cc(OC(=O)CC)nc(OC(=O)CC)c4)c(Cl)cn3)c2)c1=O [Compound I-11, 3-{3-[4-(2,6-dipropionyloxyisonicotinoyloxy)-5-chloro-2-pyridyloxycarbonyl]benzoyl}-1-ethoxymethyl-5-fluorouracil] |  |  |  |  |  |  |  |  |  |  | pIC50 (5-FU as substrate, Test Example 4, read-out: IC50 of OPRT activity inhibition): ~4.82; OPRT Inhibitory Activity: Activity (Conc. 0.2 μM, Table 5): 0.101 nmol/mL/min; inhibition at 0.2 µM (Conc. 0.2 μM, Table 5, read-out: OPRT Inhibitory Activity: Inhibition): 42.6%; OPRT Inhibitory Activity: Activity (Conc. 2 μM, Table 5): 0.098 nmol/mL/min; inhibition at 2 µM (Conc. 2 μM, Table 5, read-out: OPRT Inhibitory Activity: Inhibition): 73.4%; OPRT Inhibitory Activity: Activity (Conc. 20 μM, Table 5): 0.046 nmol/mL/min; inhibition at 20 µM (Conc. 20 μM, Table 5): 87.5%
CCOCn1cc(F)c(=O)n(C(=O)c2cccc(C(=O)Oc3cc(OC(=O)c4cc(OC(=O)C5CCCC5)nc(OC(=O)C5CCCC5)c4)c(Cl)cn3)c2)c1=O [Compound I-9, 3-{3-[4-(2,6-dicyclopentanecarbonyloxyisonicotinoyloxy)-5-chloro-2-pyridyloxycarbonyl]benzoyl}-1-ethoxymethyl-5-fluorouracil] |  |  |  |  |  |  |  |  | 41.2% | 75.9% | 
O=C(O)c1cc(O)nc(O)c1 [Citra. A., citrazinic acid, reference compound] | 0.379 nmol/mL/min | 0% | 0.301 nmol/mL/min | 20% | 0.173 nmol/mL/min | 54% | 0.075 nmol/mL/min | 80% | 31.9% | 75.1% | 
